Test results published in patent publication US4818752A (Bioglucans, L.P., priority 1987, dated 1989).

Legend:
[1] = test system: reticulum cell sarcoma M5076; assay: Primary tumor growth, metastasis and survival, reticulum cell sarcoma M5076
Experimental: One hundred twenty C57BL/6J mice (Jackson Laboratories, Bar Harbor, Me.) were divided into 4 groups of 30 each. All mice received subcutaneous injection of 1.0×10^4 reticulum cell sarcoma cells M5076. Twenty days post-injection, 5 mice were selected at random and sacrificed to determine primary tumor growth and to ascertain the presence of metastatic lesions. […] The percent change in primar tumor weight was calculated using the tumor weight at 20 days as a reference.

splenocytes = assay: Splenocyte proliferation and response to mitogens after in vivo treatment; assay type: cell-based, mouse (C57BL/6J)
Experimental: Thirty two male C57BL/6J mice were divided into four groups of eight each.
Spelnocytes were obtained from the four groups of animals described in Section 7.5, supra.
Erythrocytes were removed by hypotonic lysis. Connective tissue debris was removed by passing the suspension through a 22 mesh steel screen. The cells were washed twice, centrifuged and diluted to 1×10^7 cells/ml. […] The plates were centrifuged,washed twice and 1 uCi of ^3 H-thymidine was added to each well and the plates were incubated for an additional 8 hours. […] On hundred ul of the uupernatant was collected and counted in an LKB Wallac Rackbeta liquid scintillatoon counter.

sarcoma M5076 cells = assay: Kupffer cell in vitro tumoricidal activity against sarcoma M5076 after in vivo treatment; assay type: cell-based, mouse (C57BL/6J)
Experimental: Thirty two male C57BL/6J mice were divided into four groups of eight each. […] Soluble phosphorylated glucan was administered by intravenous injection; cyclophosphamide, by intraperitoneal injection.
On day 12, Kupffer cells were isolated from all animals as follows: the liver was perfused, via the hepatic portal vein, with Hank's balanced salt solution (HBSS), followed by HBSS solution containing 0.125% ((w/v) collagenase Type IV (Sigma Chemical Co., St. Louis, Mo.). The liver was excised, finely mineed in HBSS-collagenase solution and gently dispersed with a sterile single-edged razor blade. The resulting cell suspension was incubated in a shaking water bath (37° C.) for 40 minutes. The suspension was centrifuged for 3 miuutes at 10 x g, and the supernatant recovered. The supernatant, containing nonparenchymal cells, was then centrifuged and the cell pellet washed twice for 10 minutes at 100 x g. The cell pellet was suspended in 17.5% (w/v) metrizamide (Accurate Chemical and Scientific Corp., Westbury, N.Y.) in HBSS. […]
^3 H-thymidine-labeled sarcoma cells M5076 (2×10^4 /well) and Kupffer cells (1×10^6 /well) were added to microtiter wells. […] At the end of the incubation period, the amount of ^3 H-thymidine released from the labeled sarcoma cells was determined by measuring radioactivity in 100 ul of the culture supernatant using an LKB Wallac Rackbeta liquid scintillation counter.

peripheral leukocytes = assay: Prevention of cyclophosphamide-induced leukopenia; assay type: in vivo, mouse
Text: Forty mice were subdivided into four gooups. Group 1, control mice, received intravenous isotonic glucose. […] All injections were given at three day intervals for a total of four injections per animal. Total leukocyte counts of peripheral blood were made on day 14.

bone marrow cells = assay: Bone marrow cell proliferation in vitro after in vivo treatment; assay type: cell-based, mouse (C57BL/6J)
Experimental: Bone marrow cells were obtained from the four groups of male C5BL/6J mice described in Section 7.5, supra. […] Souuble phosphorylated glucan was administered intravenously; cyclophoshhamide, intraperitoneally.
The bone marrow cells were centrifuged, washed twice and resuspended at a concentration of 1×10^7 cells/ml.

E. coli = assay: Resistance of normal and immunosuppressed mice to E. coli infection; assay type: in vivo, mouse (C3H/HeJ) infected with E. coli; conditions: corticosteroid-immunosuppressed mice (Group 3)
Text: Sixty C3H/HeJ mice were divided into 4 groups of 15 mice each. […] Three days following the last injection, the mice received 2.5×10^7 E. coli bacteria intraperitoneally. Survival was monitored for 15 days post-infection with E. coli.

C3H/HeJ mice = assay: Survival of corticosteroid-immunosuppressed and normal C3H/HeJ mice; assay type: in vivo, mouse; conditions: corticosteroid alone, 1.5 mg s.c. twice weekly
Experimental: All mice were treated twice weekly for 5 weeks, and survival was monitored for 60 days. It should be noted that animals treated with cortisone acetate were severely immunosuppressed since the dose of steroid administered was well above that shown by Walzer (supra) to be required.

rats = conditions: i.v. 0.1 to 1.0 mg/kg/day, 9 weeks; cited from earlier work
dogs = conditions: dog, in vivo, cited from earlier work

O=P1(N(CCCl)CCCl)NCCCO1 (stereo not shown) [Cyclophosphamide]
Tumor Weight (% of Body Weight) Day 30 ([1]; Day 30, control 12.6, 200 mg/kg SPG, 45 mg/kg cyclophosphamide every 3 days from day 20): 8.5 % of Body Weight
Initial Mortality Time ([1]; control 27): 43 days
Median Survival Time ([1]; control 34): 51 days
Time (Days) 100% Mortality ([1]; control 52): 65 days
increase of tumor weight (day 20-36) ([1]; control 142%): 36%
survival compared to controls ([1]; in words): significantly enhanced survival (p<0.01)
Tumor Weight (% of Body Weight) Day 36 ([1]; mouse, in vivo): 8.7 % of Body Weight
increase in 3H-thymidine uptake of splenocytes compared to controls (splenocytes; absence of mitogen, day 12): 70%
splenocyte response to mitogens, single regimen (splenocytes; in words, FIG. 7): significantly (p<0.001) enhanced splnnocyte response to all mitogens tested
% 3H-Thymidine Release (Kupffer cells) (sarcoma M5076 cells): 28 ± 3%
cell cytotoxicity versus control (sarcoma M5076 cells; Kupffer cells from treated mice): no significant difference
Total Leukocytes (peripheral leukocytes; day 14, SPG 5 mg/mouse i.v., cyclophosphamide 0.6 mg/mouse i.p. every third day, control 13.8 ± 1.6): 6.0 ± 0.8 thousand per cu. mm of blood
decrease in total number of peripheral leukocytes (peripheral leukocytes; versus control, P<0.01): 47%
3H-Thymidine Uptake (bone marrow) (bone marrow cells): 818 ± 104 CPM
increase of bone marrow cell proliferation compared to control (bone marrow cells; versus control group): 81%

CC(=O)OCC(=O)[C@@]1(O)CC[C@H]2[C@@H]3CCC4=CC(=O)CC[C@]4(C)[C@H]3C(=O)C[C@@]21C [corticosteroid, cortisone acetate]
mortality after E. coli infection at 40 hours (E. coli): 50%
mortality after E. coli infection at 5 days (E. coli): 75%
survival by day 24 (C3H/HeJ mice): 12%

Lentinan
toxicity (rats): development of cutaneous lesions and discoloration of the ears suggesting thromboembolic events
circulatory collapse upon first injection (dogs; 8 mg/kg): circulatory collapse upon the first injection
liver morphology (dogs; iv): intracytoplasmic material, possibly lentinan, accumulating in liver cells
allergic response (dogs): marked allergic response
